Tested on: 429239-143-T-J1-PDC complex spheroid viability
Experiment: Anticancer human tumor 429239-143-T-J1-PDC patient-derived small cell lung carcinoma cell line growth inhibition [POLQ]
Settings: for IC50: curve of first compound; for viability, T/C: stronger effect = lower value; active = viability on the fitted dose curve at most 10% of control; inactive = the rest
Procedure, shortened: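 PDC + HUVEC + MSC complex spheroids; POLQ inhibitors ± partner drugs; top conc. at/near clinical Cmax, else 10 microM (SN-38 1 microM), half-log dilutions; 37 degrees C, 5% CO2.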

[1] = second compound 0.0316 µM, first compound 0.0316 µM
[2] = second compound 0.0316 µM, first compound 0.1 µM
[3] = second compound 0.0316 µM, first compound 0.316 µM
[4] = second compound 0.0316 µM, first compound 1 µM
[5] = second compound 0.0316 µM, first compound 3.16 µM
[6] = second compound 0.0316 µM, first compound 10 µM
[7] = second compound 0.1 µM, first compound 0.0316 µM
[8] = second compound 0.1 µM, first compound 0.1 µM
[9] = second compound 0.1 µM, first compound 0.316 µM
[10] = second compound 0.1 µM, first compound 1 µM
[11] = second compound 0.1 µM, first compound 3.16 µM
[12] = second compound 0.1 µM, first compound 10 µM
[13] = second compound 0.316 µM, first compound 0.0316 µM
[14] = second compound 0.316 µM, first compound 0.1 µM
[15] = second compound 0.316 µM, first compound 0.316 µM
[16] = second compound 0.316 µM, first compound 1 µM
[17] = second compound 0.316 µM, first compound 3.16 µM
[18] = second compound 0.316 µM, first compound 10 µM
[19] = second compound 1 µM, first compound 0.0316 µM
[20] = second compound 1 µM, first compound 0.1 µM
[21] = second compound 1 µM, first compound 0.316 µM
[22] = second compound 1 µM, first compound 1 µM
[23] = second compound 1 µM, first compound 3.16 µM
[24] = second compound 1 µM, first compound 10 µM
[25] = second compound 3.16 µM, first compound 0.0316 µM
[26] = second compound 3.16 µM, first compound 0.1 µM
[27] = second compound 3.16 µM, first compound 0.316 µM
[28] = second compound 3.16 µM, first compound 1 µM
[29] = second compound 3.16 µM, first compound 3.16 µM
[30] = second compound 3.16 µM, first compound 10 µM
[31] = second compound 10 µM, first compound 0.0316 µM
[32] = second compound 10 µM, first compound 0.1 µM
[33] = second compound 10 µM, first compound 0.316 µM
[34] = second compound 10 µM, first compound 1 µM
[35] = second compound 10 µM, first compound 3.16 µM
[36] = second compound 10 µM, first compound 10 µM
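Also: luminescence signal used as surrogate measure of viable cells; spheroids exposed to compounds for seven days before readout.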
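For viability, T/C in this document: 100% = DMSO vehicle control viability as luminescence relative to vehicle.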

CC1COCCN1c1cc(-c2ccnn2C)c2ccnc(-c3ccn[nH]3)c2n1 (centres undefined) + Nc1ccc(C#CCN(C(=O)Cc2ncc(C(F)(F)F)cc2C(F)(F)F)c2ccc(F)cc2)nn1
545 nM: IC50 (second compound 0.0316 µM)
inactive: viability, T/C [1] 95% | viability, T/C [2] 77.8% | viability, T/C [3] 68.3% | viability, T/C [4] 33.4% | viability, T/C [7] 91.9% | viability, T/C [8] 80.6% | viability, T/C [9] 62.9% | viability, T/C [10] 27.8% | viability, T/C [13] 91.5% | viability, T/C [14] 78.6% | viability, T/C [15] 64.7% | viability, T/C [16] 24.5% | viability, T/C [19] 86.8% | viability, T/C [20] 72% | viability, T/C [21] 56.1% | viability, T/C [22] 26.2% | viability, T/C [25] 87.9% | viability, T/C [26] 72.5% | viability, T/C [27] 53.1% | viability, T/C [28] 26.6% | viability, T/C [31] 89.4% | viability, T/C [32] 71.2% | viability, T/C [33] 47.4% | viability, T/C [34] 25.8%
466 nM: IC50 (second compound 0.316 µM)
active: viability, T/C [5] 4.99% | viability, T/C [6] 3.79% | viability, T/C [11] 5.19% | viability, T/C [12] 4.25% | viability, T/C [17] 5.31% | viability, T/C [18] 3.76% | viability, T/C [23] 5.38% | viability, T/C [24] 4.35% | viability, T/C [29] 5.52% | viability, T/C [30] 3.58% | viability, T/C [35] 4.8% | viability, T/C [36] 3.43%
343 nM: IC50 (second compound 3.16 µM)
280 nM: IC50 (second compound 10 µM)
373 nM: IC50 (second compound 1 µM)
469 nM: IC50 (second compound 0.1 µM)

CC(C)n1c(=O)n(C)c2cnc3cc(F)c(-c4ccc(OCCCN5CCCCC5)nc4)cc3c21 + COC1C(OC(N)=O)C(O)C(Oc2ccc3c(O)c(NC(=O)c4ccc(O)c(CC=C(C)C)c4)c(=O)oc3c2C)OC1(C)C
inactive: viability, T/C [1] 107% | viability, T/C [2] 86.6% | viability, T/C [3] 99% | viability, T/C [4] 109% | viability, T/C [5] 104% | viability, T/C [6] 85.4% | viability, T/C [7] 102% | viability, T/C [8] 93.7% | viability, T/C [9] 82.7% | viability, T/C [10] 96.8% | viability, T/C [11] 82.9% | viability, T/C [12] 84.7% | viability, T/C [13] 109% | viability, T/C [14] 91% | viability, T/C [15] 82.3% | viability, T/C [16] 103% | viability, T/C [17] 90.6% | viability, T/C [18] 72.5% | viability, T/C [19] 93.2% | viability, T/C [20] 104% | viability, T/C [21] 91.5% | viability, T/C [22] 96.9% | viability, T/C [23] 81.5% | viability, T/C [24] 70.2% | viability, T/C [25] 101% | viability, T/C [26] 84.8% | viability, T/C [27] 90.9% | viability, T/C [28] 100% | viability, T/C [29] 87.6% | viability, T/C [30] 83.6% | viability, T/C [31] 86.9% | viability, T/C [32] 85.8% | viability, T/C [33] 88.7% | viability, T/C [34] 102% | viability, T/C [35] 74% | viability, T/C [36] 88.4%
> 10000 nM: IC50 (second compound 0.0316 µM) | IC50 (second compound 0.1 µM) | IC50 (second compound 0.316 µM) | IC50 (second compound 1 µM) | IC50 (second compound 3.16 µM) | IC50 (second compound 10 µM)

Reference: PubChem BioAssay AID1963845 (Molecular Pharmacology Branch, DTP, NCI, 2024)
